# Test results reported in PubChem BioAssay AID2060902 (Molecular Pharmacology Branch, DTP, NCI, 2025).
# pIC50: −log10 of the molar value.
# Test system: 485368-065-R3-J5-PDC spheroids with HUVEC/MSC, viability
# Experiment: Anticancer human tumor 485368-065-R3-J5-PDC patient-derived pancreatic carcinoma cell line growth inhibition [RAS]
# Details: for pIC50: curve of first compound; for viability, T/C: stronger effect = lower value
# Procedure, shortened: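 Multi-cell-type spheroids: tumor cells plus HUVEC endothelial cells and mesenchymal stem cells. RAS-pathway inhibitors were combined with targeted agents, each dosed in half-log steps down from clinical Cmax, or from 10 microM when Cmax was unknown.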
# [1] = second compound 0.0316 µM, first compound 0.0316 µM
# [2] = second compound 0.0316 µM, first compound 0.1 µM
# [3] = second compound 0.0316 µM, first compound 0.316 µM
# [4] = second compound 0.0316 µM, first compound 1 µM
# [5] = second compound 0.0316 µM, first compound 3.16 µM
# [6] = second compound 0.0316 µM, first compound 10 µM
# [7] = second compound 0.1 µM, first compound 0.0316 µM
# [8] = second compound 0.1 µM, first compound 0.1 µM
# [9] = second compound 0.1 µM, first compound 0.316 µM
# [10] = second compound 0.1 µM, first compound 1 µM
# [11] = second compound 0.1 µM, first compound 3.16 µM
# [12] = second compound 0.1 µM, first compound 10 µM
# [13] = second compound 0.316 µM, first compound 0.0316 µM
# [14] = second compound 0.316 µM, first compound 0.1 µM
# [15] = second compound 0.316 µM, first compound 0.316 µM
# [16] = second compound 0.316 µM, first compound 1 µM
# [17] = second compound 0.316 µM, first compound 3.16 µM
# [18] = second compound 0.316 µM, first compound 10 µM
# [19] = second compound 1 µM, first compound 0.0316 µM
# [20] = second compound 1 µM, first compound 0.1 µM
# [21] = second compound 1 µM, first compound 0.316 µM
# [22] = second compound 1 µM, first compound 1 µM
# [23] = second compound 1 µM, first compound 3.16 µM
# [24] = second compound 1 µM, first compound 10 µM
# 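Further: spheroids exposed to agents for seven days before readout.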
structure (smiles),measurement,setting,value
Nc1ccn(C2OC(CO)C(O)C2(F)F)c(=O)n1 (stereo unspecified) + CCn1c(-c2cccnc2C(C)OC)c2c3cc(ccc31)N1CCOC(CC(NC(=O)C(C(C)C)N(C)C(=O)C3(F)CCN(C(=O)C#CC(C)(C)N(C)C)CC3)C(=O)N3CCCC(N3)C(=O)OCC(C)(C)C2)C1,pIC50,second compound 0.000949 µM,8.15
same,pIC50,second compound 0.003 µM,8.17
same,pIC50,second compound 0.00949 µM,8.04
same,pIC50,second compound 0.03 µM,8.17
same,pIC50,second compound 0.0949 µM,8.16
same,pIC50,second compound 0.3 µM,8.18
same,"viability, T/C","second compound 0.000949 µM, first compound 0.00316 µM",94.9%
same,"viability, T/C","second compound 0.000949 µM, first compound 0.01 µM",30.4%
same,"viability, T/C","second compound 0.000949 µM, first compound 0.0316 µM",11.6%
same,"viability, T/C","second compound 0.000949 µM, first compound 0.1 µM",11%
same,"viability, T/C","second compound 0.000949 µM, first compound 0.316 µM",14.4%
same,"viability, T/C","second compound 0.000949 µM, first compound 1 µM",11.8%
same,"viability, T/C","second compound 0.003 µM, first compound 0.00316 µM",89.2%
same,"viability, T/C","second compound 0.003 µM, first compound 0.01 µM",29.2%
same,"viability, T/C","second compound 0.003 µM, first compound 0.0316 µM",10.5%
same,"viability, T/C","second compound 0.003 µM, first compound 0.1 µM",9.86%
same,"viability, T/C","second compound 0.003 µM, first compound 0.316 µM",13.8%
same,"viability, T/C","second compound 0.003 µM, first compound 1 µM",13.4%
same,"viability, T/C","second compound 0.00949 µM, first compound 0.00316 µM",94.2%
same,"viability, T/C","second compound 0.00949 µM, first compound 0.01 µM",46.6%
same,"viability, T/C","second compound 0.00949 µM, first compound 0.0316 µM",11.3%
same,"viability, T/C","second compound 0.00949 µM, first compound 0.1 µM",11.4%
same,"viability, T/C","second compound 0.00949 µM, first compound 0.316 µM",11.3%
same,"viability, T/C","second compound 0.00949 µM, first compound 1 µM",12.1%
same,"viability, T/C","second compound 0.03 µM, first compound 0.00316 µM",89.7%
same,"viability, T/C","second compound 0.03 µM, first compound 0.01 µM",28.8%
same,"viability, T/C","second compound 0.03 µM, first compound 0.0316 µM",12.1%
same,"viability, T/C","second compound 0.03 µM, first compound 0.1 µM",12.9%
same,"viability, T/C","second compound 0.03 µM, first compound 0.316 µM",11.7%
same,"viability, T/C","second compound 0.03 µM, first compound 1 µM",10.4%
same,"viability, T/C","second compound 0.0949 µM, first compound 0.00316 µM",96.9%
same,"viability, T/C","second compound 0.0949 µM, first compound 0.01 µM",26.8%
same,"viability, T/C","second compound 0.0949 µM, first compound 0.0316 µM",11.9%
same,"viability, T/C","second compound 0.0949 µM, first compound 0.1 µM",9.81%
same,"viability, T/C","second compound 0.0949 µM, first compound 0.316 µM",12.7%
same,"viability, T/C","second compound 0.0949 µM, first compound 1 µM",10.6%
same,"viability, T/C","second compound 0.3 µM, first compound 0.00316 µM",94%
same,"viability, T/C","second compound 0.3 µM, first compound 0.01 µM",25.7%
same,"viability, T/C","second compound 0.3 µM, first compound 0.0316 µM",12.1%
same,"viability, T/C","second compound 0.3 µM, first compound 0.1 µM",11%
same,"viability, T/C","second compound 0.3 µM, first compound 0.316 µM",11.5%
same,"viability, T/C","second compound 0.3 µM, first compound 1 µM",9.33%
NC1c2ccccc2OC12CCN(c1cnc3c(N4CCCc5ncccc54)n[nH]c3n1)CC2 (stereo unspecified) + C=CC(=O)N1CCN(c2nc(OCC3CCCN3C)nc3c(F)c(-c4nc(N)cc(C)c4C(F)(F)F)c(Cl)cc23)C(C)C1,pIC50,second compound 0.00316 µM,< 5.00
same,pIC50,second compound 0.01 µM,< 5.00
same,pIC50,second compound 0.0316 µM,< 5.00
same,pIC50,second compound 0.1 µM,< 5.00
same,pIC50,second compound 0.316 µM,< 5.00
same,pIC50,second compound 1 µM,< 5.00
same,"viability, T/C","second compound 0.00316 µM, first compound 0.0316 µM",83.2%
same,"viability, T/C","second compound 0.00316 µM, first compound 0.1 µM",60.2%
same,"viability, T/C","second compound 0.00316 µM, first compound 0.316 µM",78.5%
same,"viability, T/C","second compound 0.00316 µM, first compound 1 µM",72.2%
same,"viability, T/C","second compound 0.00316 µM, first compound 3.16 µM",67%
same,"viability, T/C","second compound 0.00316 µM, first compound 10 µM",69.8%
same,"viability, T/C","second compound 0.01 µM, first compound 0.0316 µM",87.7%
same,"viability, T/C","second compound 0.01 µM, first compound 0.1 µM",76.8%
same,"viability, T/C","second compound 0.01 µM, first compound 0.316 µM",67.5%
same,"viability, T/C","second compound 0.01 µM, first compound 1 µM",64.4%
same,"viability, T/C","second compound 0.01 µM, first compound 3.16 µM",77%
same,"viability, T/C","second compound 0.01 µM, first compound 10 µM",65.7%
same,"viability, T/C",[1],81.2%
same,"viability, T/C",[2],88.2%
same,"viability, T/C",[3],64.1%
same,"viability, T/C",[4],67.4%
same,"viability, T/C",[5],72.5%
same,"viability, T/C",[6],69.8%
same,"viability, T/C",[7],82.4%
same,"viability, T/C",[8],75.8%
same,"viability, T/C",[9],61.1%
same,"viability, T/C",[10],74.9%
same,"viability, T/C",[11],78%
same,"viability, T/C",[12],74.6%
same,"viability, T/C",[13],72.1%
same,"viability, T/C",[14],79.2%
same,"viability, T/C",[15],75.1%
same,"viability, T/C",[16],64.1%
same,"viability, T/C",[17],73.1%
same,"viability, T/C",[18],60.4%
same,"viability, T/C",[19],84.7%
same,"viability, T/C",[20],77.5%
same,"viability, T/C",[21],72.9%
same,"viability, T/C",[22],60.6%
same,"viability, T/C",[23],60.7%
same,"viability, T/C",[24],54.9%
NC1c2ccccc2OC12CCN(c1cnc3c(N4CCCc5ncccc54)n[nH]c3n1)CC2 (stereo unspecified) + C#Cc1c(F)ccc2cc(O)cc(-c3ncc4c(N5CC6CCC(C5)N6)nc(OCC56CCCN5CC(F)C6)nc4c3F)c12,pIC50,second compound 0.0316 µM,< 5.00
same,pIC50,second compound 0.1 µM,5.62
same,pIC50,second compound 0.316 µM,5.99
same,pIC50,second compound 1 µM,6.93
same,pIC50,second compound 3.16 µM,> 7.50
same,pIC50,second compound 10 µM,> 7.50
same,"viability, T/C",[1],82.1%
same,"viability, T/C",[2],79.2%
same,"viability, T/C",[3],70.9%
same,"viability, T/C",[4],66.3%
same,"viability, T/C",[5],72.1%
same,"viability, T/C",[6],55%
same,"viability, T/C",[7],76%
same,"viability, T/C",[8],72.9%
same,"viability, T/C",[9],61.7%
same,"viability, T/C",[10],60.7%
same,"viability, T/C",[11],44.2%
same,"viability, T/C",[12],43.9%
same,"viability, T/C",[13],69.9%
same,"viability, T/C",[14],61.6%
same,"viability, T/C",[15],58.6%
same,"viability, T/C",[16],54.4%
same,"viability, T/C",[17],35.5%
same,"viability, T/C",[18],28.8%
same,"viability, T/C",[19],60.3%
same,"viability, T/C",[20],47.4%
same,"viability, T/C",[21],43.4%
same,"viability, T/C",[22],37.9%
same,"viability, T/C",[23],28.9%
same,"viability, T/C",[24],18.9%
same,"viability, T/C","second compound 3.16 µM, first compound 0.0316 µM",40%
same,"viability, T/C","second compound 3.16 µM, first compound 0.1 µM",33.7%
same,"viability, T/C","second compound 3.16 µM, first compound 0.316 µM",27.5%
same,"viability, T/C","second compound 3.16 µM, first compound 1 µM",23.7%
same,"viability, T/C","second compound 3.16 µM, first compound 3.16 µM",17.8%
same,"viability, T/C","second compound 3.16 µM, first compound 10 µM",17.5%
same,"viability, T/C","second compound 10 µM, first compound 0.0316 µM",23.3%
same,"viability, T/C","second compound 10 µM, first compound 0.1 µM",20.3%
same,"viability, T/C","second compound 10 µM, first compound 0.316 µM",17.9%
same,"viability, T/C","second compound 10 µM, first compound 1 µM",14.2%
same,"viability, T/C","second compound 10 µM, first compound 3.16 µM",13%
same,"viability, T/C","second compound 10 µM, first compound 10 µM",12.8%
